# Results published in US20220152031A1, “PYRIDAZINONES AND METHODS OF USE THEREOF” (Goldfinch Bio, Inc., priority 2019, published 2022).
# Target: T1, TRPC5 (Homo sapiens, UniProt Q9UL62)
# T1 construct: expressed in transfected cells
# T1 sequence (Q9UL62 1-973): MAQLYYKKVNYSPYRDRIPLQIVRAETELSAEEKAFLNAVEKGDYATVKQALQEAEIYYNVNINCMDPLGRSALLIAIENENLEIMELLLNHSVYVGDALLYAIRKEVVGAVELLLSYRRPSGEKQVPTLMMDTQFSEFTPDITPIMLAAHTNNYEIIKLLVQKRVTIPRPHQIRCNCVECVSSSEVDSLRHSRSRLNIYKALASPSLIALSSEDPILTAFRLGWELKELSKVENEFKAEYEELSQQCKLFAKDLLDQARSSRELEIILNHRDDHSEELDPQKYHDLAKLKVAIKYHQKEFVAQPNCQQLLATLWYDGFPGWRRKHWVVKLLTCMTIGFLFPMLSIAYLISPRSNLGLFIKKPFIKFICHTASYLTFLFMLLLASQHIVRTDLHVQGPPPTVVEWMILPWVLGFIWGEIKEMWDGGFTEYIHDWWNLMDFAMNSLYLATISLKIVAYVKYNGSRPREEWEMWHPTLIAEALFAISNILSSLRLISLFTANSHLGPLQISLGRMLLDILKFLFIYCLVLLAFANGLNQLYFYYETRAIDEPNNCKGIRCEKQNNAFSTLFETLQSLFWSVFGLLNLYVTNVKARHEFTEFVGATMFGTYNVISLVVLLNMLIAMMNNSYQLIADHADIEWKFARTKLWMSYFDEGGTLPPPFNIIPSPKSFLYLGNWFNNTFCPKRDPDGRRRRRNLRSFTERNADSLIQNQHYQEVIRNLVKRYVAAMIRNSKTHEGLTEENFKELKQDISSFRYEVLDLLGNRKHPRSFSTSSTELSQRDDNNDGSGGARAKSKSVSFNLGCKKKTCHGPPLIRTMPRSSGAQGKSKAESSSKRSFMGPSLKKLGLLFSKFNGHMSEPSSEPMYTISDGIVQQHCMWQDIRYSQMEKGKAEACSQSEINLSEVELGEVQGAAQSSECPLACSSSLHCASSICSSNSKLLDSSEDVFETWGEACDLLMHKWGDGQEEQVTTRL
# Test: TRPC5 activity assay (FLIPR calcium fluorescence, HEK-TREx hTRPC5 cells)
# Format: cell-based
# Details: HEK-TREx hTRPC5 cells, FLIPR, 30 μM Riluzole stimulation; read-out: TRPC5
# Procedure: ICLN-1633 cells (HEK-TREx hTRPC5) expressing TRPC5 were generated as follows. Commercially available HekTrex-293 cells were seeded at 0.7×10^6 cells/well in a 1×6-well plate 24 hrs prior to transfection using 2 mL cell growth media containing no antibiotics (lx DMEM/high glucose (Hyclone #SH30022.02); 10% fetal bovine serum (Sigma) 2 mM sodium pyruvate, 10 mM HEPES). […] On day 2, 2 μg of plasmid DNA plus 6 μl of Xtreme-GENE HP reagent in Optimem (200 μl total volume) was prepared and incubated for 15 min at room temperature. This plasmid solution was then gently overlayed dropwise onto each well and the plate was gently swirled to mix complex with the media for approximately 30 seconds. Transfected cells were incubated at 37° C. in a 10% CO2 incubator for 24 hrs. The transfected cells were harvested and transferred into 2×150 mm dishes containing cell growth media with no antibiotics at 37° C.
# The next day selection was initiated to generate a stable pool by adding cell growth media containing 150 μg/mL Hygromycin and 5 μg/mL Blasticidin and cells were allowed to grow. Media with the selection agent was changed every 1-2 days as needed to remove dead cells. After 7 days, the hygromycin concentration was reduced to 75 μg/mL and cells growth was allowed to continue.
# Single clones were selected as follows. The stable pool was diluted to 10 cells/mL and seeded (100 μl/well) into 24×96 well plates (˜1 cell/well) and allowed to grow for 7 days in cell growth media. Fresh media (100 μl) was added and the cells allowed to grow for another 1-2 weeks and then stored frozen or used immediately.
# 10-point dose response curves were generated using the Echo-550 acoustic dispenser. Compound source plates were made by serially diluting compound stocks to create 10 mM, 1 mM, and 0.1 mM solutions in DMSO into Echo certified LDV plates. The Echo then serially spotted 100% DMSO stock solutions into source dose response plates to generate a 4-fold dilution scheme. 100% DMSO was added to the spotted dose response plates to bring the final volume to 5 μl. 300 nl of the dose response stock plate was then spotted into pre-incubation and stimulation assay plates. 50 μl of pre-incubation buffer and 100 μl of stimulation buffer was then added to the plates resulting in a final assay test concentration range of 30 μM to 0.0001 μM with a final DMSO concentration of 0.3%.
# Human ICLN-1633 cells expressing were plated onto 384 well, black PDL-coated microplates and maintained in TRPC5 growth media the day prior to use for experiments. TRPC5 expression was induced by the application of 1 μg/mL tetracycline at the time of plating. […] Cells are incubated at room temperature, protected from light, for 60-90 minutes. After the incubation period, the dye is removed and replaced with 10 μl of EBSS. Cell, pre-incubation and stimulation plates are loaded onto the FLIPR-II and the assay is initiated. The FLIPR measures a 10 second baseline and then adds 10 μl of 2× compounds (or controls). Changes in fluorescence are monitored for an additional 5 minutes. After the 5 minute pre-incubation, 20 μl of 2× Riluzole (with 1× compound or controls) is added to the cell plate. The final Riluzole stimulation concentration in the assay is 30 μM. After the Riluzole addition, changes in fluorescence are monitored for an additional 5 minutes.
# Compound modulation of TRPC5 calcium response was determined as follows. After the Englerin A, fluorescence was monitored for a 5-minute period. The maximum relative fluorescence response (minus the control response of 1 μM of an internal control compound known to maximally block TRPC5 calcium response, the “REF INHIB” in the formula below) was captured and exported from the FLIPR.
# Compound effect is calculated as % inhibition using the following formula: […]
# wherein “RFU” is the relative fluorescent units.
row,SMILES,IC50 [nM]
1,C[C@H]1CCN(Cc2ccccc2)C[C@H]1N(C)c1ncnc2c1CCN(c1cn[nH]c(=O)c1Cl)C2 [Compound 133a],500 to 1000
2,Nc1nc2c(c(Oc3ccc(F)cc3C(F)(F)F)n1)CCN(c1cn[nH]c(=O)c1Cl)C2 [Compound 116],< 50
3,"COc1nc2c(c(Oc3ccccc3C(F)(F)F)n1)CCN(c1cn[nH]c(=O)c1Cl)C2 [Compound 110, 4-Chloro-5-[2-methoxy-4-[2-(trifluoromethyl)phenoxy]-5H,6H,7H,8H-pyrido[3,4-d]pyrimidin-7-yl]-2,3-dihydropyridazin-3-one]",50 to 500
4,"Cn1c2c(c(Oc3ccc(F)cc3C(F)(F)F)nc1=O)CCN(c1cn[nH]c(=O)c1Cl)C2 [Compound 138, 4-Chloro-5-[4-[4-fluoro-2-(trifluoromethyl)phenoxy]-1-methyl-2-oxo-1H,2H,5H,6H,7H,8H-pyrido[3,4-d]pyrimidin-7-yl]-2,3-dihydropyridazin-3-one]",50 to 500
5,"C[C@@H]1CCN(Cc2ccccc2)C[C@@H]1N(C)c1ncnc2c1CCN(c1cn[nH]c(=O)c1Cl)C2 [Compound 133, 5-(4-[[(3R,4R)-1-Benzyl-4-methylpiperidin-3-yl](methyl)amino]-5H,6H,7H,8H-pyrido[3,4-d]pyrimidin-7-yl)-4-chloro-2,3-dihydropyridazin-3-one]",50 to 500
6,"O=c1[nH]ncc(N2CCc3c(Oc4ccc(F)cc4C(F)(F)F)ccnc3C2)c1Cl [Compound 140, 4-chloro-5-[4-[4-fluoro-2-(trifluoromethyl)phenoxy]-5,6,7,8-tetrahydro-1,7-naphthyridin-7-yl]-2,3-dihydropyridazin-3-one]",50 to 500
7,"N#Cc1cccc(Oc2ncnc3c2CCN(c2cn[nH]c(=O)c2Cl)C3)c1Cl [Compound 108, 2-Chloro-3-[[7-(5-chloro-6-oxo-1,6-dihydropyridazin-4-yl)-5H,6H,7H,8H-pyrido[3,4-d]pyrimidin-4-yl]oxy]benzonitrile]",50 to 500
8,"C[C@H](O)c1nc2c(c(Oc3ccccc3C(F)(F)F)n1)CCN(c1cn[nH]c(=O)c1Cl)C2 (single isomer, unassigned) [Compound 123]",50 to 500
9,Nc1nc2c(c(Oc3ccccc3Cl)n1)CCN(c1cn[nH]c(=O)c1Cl)C2 [Compound 113],< 50
10,"O=c1[nH]ncc(N2CCc3c(ncnc3N(CCO)c3ccc(F)cc3C(F)(F)F)C2)c1Cl [Compound 136, 4-Chloro-5-(4-[[4-fluoro-2-(trifluoromethyl)phenyl](2-hydroxyethyl)amino]-5H,6H,7H,8H-pyrido[3,4-d]pyrimidin-7-yl)-2,3-dihydropyridazin-3-one]",< 50
11,"O=c1[nH]ncc(N2CCc3c(ncnc3C3(c4ccc(F)cc4C(F)(F)F)CC3)C2)c1Cl [Compound 132, 4-Chloro-5-(4-[1-[4-fluoro-2-(trifluoromethyl)phenyl]cyclopropyl]-5H,6H,7H,8H-pyrido[3,4-d]pyrimidin-7-yl)-2,3-dihydropyridazin-3-one]",50 to 500
12,"CCc1c(F)cccc1Oc1ncnc2c1CCN(c1cn[nH]c(=O)c1Cl)C2 [Compound 109, 4-Chloro-5-[4-(2-ethyl-3-fluorophenoxy)-5H,6H,7H,8H-pyrido[3,4-d]pyrimidin-7-yl]-2,3-dihydropyridazin-3-one]",< 50
13,"Nc1nc2c(c(Oc3ccc(F)cc3Cl)n1)CCN(c1cn[nH]c(=O)c1Cl)C2 [Compound 112, 5-[2-amino-4-(2-chloro-4-fluorophenoxy)-5H,6H,7H,8H-pyrido[3,4-d]pyrimidin-7-yl]-4-chloro-2,3-dihydropyridazin-3-one]",< 50
14,"C[C@@H]1c2ncnc(Oc3ccc(F)cc3Cl)c2CCN1c1cn[nH]c(=O)c1Cl [Compound 118, 4-chloro-5-[(8R)-4-(2-chloro-4-fluorophenoxy)-8-methyl-5H,6H,7H,8H-pyrido[3,4-d]pyrimidin-7-yl]-2,3-dihydropyridazin-3-one]",50 to 500

# Next, values leading:
row,IC50 [nM],SMILES
1,< 50,"O=c1[nH]ncc(N2CCc3c(ccnc3Oc3ccc(F)cc3C(F)(F)F)C2)c1Cl [Compound 120, 4-chloro-5-[5-[4-fluoro-2-(trifluoromethyl)phenoxy]-1,2,3,4-tetrahydro-2,6-naphthyridin-2-yl]-2,3-dihydropyridazin-3-one]"
2,< 50,"C[C@@H](O)c1nc2c(c(Oc3ccccc3C(F)(F)F)n1)CCN(c1cn[nH]c(=O)c1Cl)C2 (single isomer, unassigned) [Compound 122]"
3,< 50,O=c1[nH]ncc(N2CCc3c(ncnc3Oc3cnccc3C(F)(F)F)C2)c1Cl [Compound 107]
4,< 50,"O=c1[nH]ncc(N2CCc3c(ncnc3Oc3ccccc3C(F)F)C2)c1Cl [Compound 103, 4-Chloro-5-[4-[2-(difluoromethyl)phenoxy]-5H,6H,7H,8H-pyrido[3,4-d]pyrimidin-7-yl]-2,3-dihydropyridazin-3-one]"
5,< 50,"CN(c1cnccc1C(F)(F)F)c1ncnc2c1CCN(c1cn[nH]c(=O)c1Cl)C2 [Compound 131, 4-chloro-5-(4-[methyl[4-(trifluoromethyl)pyridin-3-yl]amino]-5H,6H,7H,8H-pyrido[3,4-d]pyrimidin-7-yl)-2,3-dihydropyridazin-3-one]"
6,< 50,O=c1[nH]ncc(N2CCc3c(nc(CO)nc3Oc3ccccc3C(F)(F)F)C2)c1Cl [Compound 128]
7,< 50,C[C@@H](O)c1nc2c(c(Oc3ccc(F)cc3Cl)n1)CCN(c1cn[nH]c(=O)c1Cl)C2 [Compound 119]
8,< 50,O=c1[nH]ncc(N2CCc3c(nc(CO)nc3Oc3ccc(F)cc3C(F)(F)F)C2)c1Cl [Compound 125]
9,< 50,O=c1[nH]ncc(N2CCc3c(ncnc3Oc3ccccc3Cl)C2)c1Cl [Compound 101]

# Same assay, conditions: Table 4, HEK-TREx hTRPC5; read-out: TRPC5-FLIPR IC50
row,IC50 [nM],SMILES
1,0.01 to 1000,"CCc1ncccc1[C@@H](C)n1nnc2c1CCN(c1cn[nH]c(=O)c1Cl)C2 [MS, 4-chloro-5-[1-[(1R)-1-(2-ethylpyridin-3-yl)ethyl]-1H,4H,5H,6H,7H-[1,2,3]triazolo[4,5-c]pyridin-5-yl]-2,3-dihydropyridazin-3-one]"

# Same assay, conditions: Table 7, HEK-TREx hTRPC5; read-out: TRPC5-FLIPR IC50
row,IC50 [nM],SMILES
1,0.01 to 1000,"CCc1ncccc1[C@@H](C)n1nnc2c1CCN(c1cn[nH]c(=O)c1Cl)C2 [MS, 4-chloro-5-[1-[(1R)-1-(2-ethylpyridin-3-yl)ethyl]-1H,4H,5H,6H,7H-[1,2,3]triazolo[4,5-c]pyridin-5-yl]-2,3-dihydropyridazin-3-one]"
